In patent publication US20260345605A1, “THERAPEUTIC AGENTS FOR HEART FAILURE” (Ottawa Hospital Research Institute, priority 2023, published 2026):

What was measured:
[1] = system: iPS cell-derived cardiomyocytes (iCell Cardiomyocytes); test: Secondary screening: morphometric analysis of iCell Cardiomyocytes; type: cell-based, human
Description: A library of 800 small molecule compounds that can stimulate favorable cardiac adaptation in primary neonatal rat ventricular myocytes (NRVM) was screened. To identify the beneficial modifiers of hypertrophy, the Cellomics Arrayscan High Throughput Screening platform was employed to quantify morphometric features such as, for example, length, width, and length to width ratio from images acquired using a 10× lens for DAPI-labeled nuclei and CY3 labeled α actinin stained cardiomyocytes in a 96 well format. The lead compound was also screened in iPSC derived cardiomyocytes as a part of secondary screening as it offers a physiologically relevant human cell-based model.
A secondary screening was performed with 10 drugs identified from primary screening for their ability to induce physiological remodeling using morphometric analysis and measuring the levels of B-type natriuretic peptide (BNP), as a surrogate indicator of the hypertrophic response using ELISA. The compounds were selected based on the highly enriched targets identified in the drug set enrichment analysis with a high Z score. Cryopreserved iPS cell-derived cardiomyocytes (“iCell Cardiomyocytes”) obtained from Cellular Dynamics International (CDI, Madison, WI) were used as a cell model to perform the screening.
The cells were plated at a density of 2.5×10^4 cells onto 25 mm diameter fibronectin coated glass coverslips in plating media for 48 hours. The media was replaced with Supplemented William's E (SWE) medium (SWE) media supplemented with cocktail containing penicillin-streptomycin, ITS+(insulin, transferrin, selenium complex, BSA, and linoleic acid), GlutaMAX™, and HEPES (Primary Hepatocyte Maintenance Supplements-GIBCO) for 48 hours. The cells were treated with controls (CT1-40 ng/mL, PE-100 uM) and drugs (AZD1152-HQPA, LY283519) at varying concentrations (2.5, 1, 0.5, and 0.25 uM) for 24 hours.
Post treatments, the cells were washed, fixed and treated with primary antibody, secondary antibody similar to the protocol of Example 3. The effect on the morphometric parameters was assessed using Cellomics Arrayscan Vti HCS reader. The Image acquisition was performed using the Zeiss AxioVision SE64 Imaging software and analyzed using the ImageJ2 software.
iCell cardiomyocytes were seeded at a density of 10,000 cells per well in a 96 well plate format. The cells were maintained as in Example 3 and were treated with controls (hCT1, PE) and drugs (AZD1152-HQPA, LY283519) at four different concentrations for 24 hours. The cells were then fixed and stained with a Actinin for cardiomyocytes followed by nuclear staining with DAPI. The plates were analyzed in Cellomics Arrayscan Vti HCS reader to assess morphometric changes following treatment.

CDK4 = test: pCDK4 Thr172 immunofluorescence and remodeling in primary cardiomyocytes; type: cell-based
Description: Post treatment, the cells were washed, fixed, and were subjected to sequential staining of primary antibodies a Actinin and phospho-CDK4 (Thr172). The images were acquired using the Zeiss AxioVision SE64 Imaging software and analyzed using the ImageJ2 software.
Immunofluorescence was used to detect α-actinin, pCDK4 Thr172, and nuclei were stained with DAPI. […] The nuclear fluorescent intensity of pCDK4 Thr172 using the ImageJ software. The data are represented as Mean±Standard deviation.

[2] = system: neonatal rat ventricular cardiomyocytes; test: Calcium transients (Fura2-AM) in neonatal rat ventricular cardiomyocytes; type: cell-based; details: for contractility / contractile function: inferred from peak calcium transient, AUC and time to peak
Experimental: Method: Freshly isolated wildtype neonatal rat ventricular cardiomyocytes were plated onto laminin coated glass coverslides, rinsed once and then loaded with 1 μM Fura2-AM (Life Technologies) for 15 min at 37 °C. After washing the cells thrice with Tyrode solution, measuring chambers were transferred onto a Nikon Eclipse TE2000-U microscope equipped with a fluorescence detection system (IonOptix). Ca^2+ transient values were recorded according to the corresponding FRET experiments. F340/F380 values in Fura2-AM experiments were calculated from the ratios of 510 nm emission light measured at 340 and 380 nm excitations.

cardiomyocytes (NRVMs) = test: Oxygen consumption rate of cardiomyocytes (Seahorse Mito Stress Test); type: cell-based, neonatal rat; details: 24 h treatment; vs untreated control; FIG. 12
Experimental: OCR detection of cardiomyocytes was conducted with the Seahorse Xfe 24 analyzer (Agilent, Santa Clara, USA). Cardiomyocytes were seeded at a density of 8×10^4/well in a special Seahorse 24-well plate (102342-100, Seahorse). After treating with hCT1, PE and drug for 24 h, the medium was replaced with XF medium containing 10 mM D-(+)-glucose (G7021, Sigma-Aldrich), and 1 mM sodium pyruvate (11360070, Thermo Fisher). The plates were placed in a CO2-free 37 °C incubator for an hour before the measurement. A Seahorse XF Cell Mito Stress Test Kit (103015-100, Seahorse) was used for detection. The basal respiration of the NRVMs was detected, and ATP-linked OCR was analyzed after treatment with 1 μM oligomycin (ATP synthase inhibitor). Then, the uncoupling agent carbonyl [COMPOUND LEFT OUT] 4-(trifluoromethoxy) phenylhydrazone (FCCP) 0.5 μM was injected to detect maximal respiration. Finally, rotenone and antimycin A (AR) were used to abolish mitochondrial respiration by inhibiting complexes I and III, respectively.

cardiac fibrosis = test: Cardiac fibrosis by Masson's trichome staining in PE rat model; type: in vivo, Sprague Dawley rat
Experimental: (§1) Animal Model Preparation. Sprague Dawley rats were continuously treated with phenylephrine (PE), an α-adrenergic agonist that causes vasoconstriction leading to increased afterload and decreased ventricular function, to create a left-ventricular dysfunction animal model. […] For chronic infusion of phenylephrine, Alzet® mini-osmotic pumps (2002, Durect® Corp) containing Phenylephrine (PE) (10 mg/kg/day) or PBS vehicle were surgically implanted dorsally and subcutaneously in each Sprague Dawley rat under isoflurane anaesthesia. The animals were allowed to develop left ventricular hypertrophy for 2 weeks following the osmotic pump implantation.
(§2) Echocardiography was performed, the animals were sacrificed at 3 weeks endpoint and the blood and tissue were harvested for further analysis.
The rat model was prepared as described in Example 12, and the cardiac tissue harvested at the end of the 3 weeks was prepared with Masson's trichome staining methodology, which is a histological technique used to visualize and assess connective tissue, particularly collagen, within biological samples.

[3] = system: cardiac angiogenesis (CD31); test: Cardiac angiogenesis by CD31 staining in PE rat model; type: in vivo, Sprague Dawley rat
Experimental: as §1, §2
The rat model was prepared as described in Example 12, and the cardiac tissue harvested at the end of the 3 weeks was prepared for CD31 Staining, which is a histological technique used to visualize and assess angiogenesis in cardiac tissue.

[4] = PE, compared to control sham animals

Structure (SMILES): CNC[C@H](O)c1cccc(O)c1 [PE, phenylephrine]
- Mean Cardiomyocyte Length ([1]; 24 h, 100 µM): 191 µm
- CDK4 activation (CDK4; PE 100 μM): CDK4 activation
- cardiomyocyte remodeling (CDK4; PE 100 μM): concentric hypertrophic remodeling was observed
- area under the curve (AUC) of calcium transient ([2]; compared to control, FIG. 11): much higher AUC
- calcium transient levels ([2]; compared to control, FIG. 11): aberrant increase calcium transient levels
- time to peak calcium transient ([2]; compared to control, FIG. 11): decreased time to peak calcium transient
- contractility / contractile function [2]: defective contractile function of cardiomyocytes
- oxygen consumption rate (OCR) (cardiomyocytes (NRVMs)): reduced oxygen consumption rate
- cardiac fibrosis (cardiac fibrosis; [4]): significant increase in cardiac fibrosis
- CD31 staining [3, 4]: significantly decreased CD31 staining

Structure (SMILES): CCN1CCN(Cc2ccc(Nc3ncc(F)c(-c4cc(F)c5nc(C)n(C(C)C)c5c4)n3)nc2)CC1 [LY2835219]
- Mean Cardiomyocyte Length ([1]; iCell Cardiomyocyte, drug 0.25 μm, 24 hours, UT 213.01323): 221 µm
- Mean Cardiomyocyte Length ([1]; iCell Cardiomyocyte, drug 0.5 μm, 24 hours, UT 213.01323): 239 µm
- Mean Cardiomyocyte Length ([1]; iCell Cardiomyocyte, drug 1 μm, 24 hours, UT 213.01323): 242 µm
- Mean Cardiomyocyte Length ([1]; iCell Cardiomyocyte, drug 2.5 μm, 24 hours, UT 213.01323): 245 µm
- Eccentric cardiac remodeling ([1]; iCell cardiomyocyte, 1 uM, FIG. 4A): Eccentric cardiac remodeling was observed
- cardiomyocyte length compared with CT1 treated cells ([1]; iCell cardiomyocytes on coverslips, 24 hours): comparable cardiomyocyte length
- length in iCell cardiomyocyte compared to hCT1 ([1]; iCell cardiomyocytes, 96 well, four concentrations, 24 hours): increased length in iCell cardiomyocyte comparable to length induced by hCT1
- CDK4 activation (CDK4; LY2835219 1.5 μM): inhibited CDK4 activation
- pathological effect of PE (CDK4; drug for 4 hr following PE treatment for 24 hours): able to reverse the pathological effect of PE
- area under the curve (AUC) of calcium transient ([2]; compared to control, FIG. 11): increased AUC compared to control
- calcium transient levels ([2]; compared to control, FIG. 11): increase in calcium transient levels compared to control
- contractility / contractile function [2]: improved contractility by modest increase in peak calcium transient levels and AUC with modest decrease in time to attain those peak levels
- oxygen consumption rate (OCR) (cardiomyocytes (NRVMs)): increase the rate of oxygen consumption
- cardiac fibrosis (cardiac fibrosis; LY2835219 in animals subjected to PE treatment): did reduce fibrosis
- cardiac fibrosis (cardiac fibrosis; LY2835219 treatment alone): did not induce fibrosis
- cardiac angiogenesis ([3]; LY2835219 in PE treated animals): improve angiogenesis
- cardiac angiogenesis ([3]; LY2835219 treatment): increased angiogenesis
